For assay [1], the target named is T1, human SERT (Homo sapiens, UniProt P31645).
T1 construct: expressed in transfected cells
The assay can be described thus: Binding site competition, cells stably transfected with human SERT, [3H]citalopram. To be noted: for Ki / SERT Ki: [3H]citalopram, transfected cell lines; for DAT/SERT selectivity / NET/SERT selectivity: ratio of Ki.

Assay [2] addresses T2, human DAT (Homo sapiens, UniProt Q01959).
T2 construct: expressed in transfected cells
In words: Binding site competition, cells stably transfected with human DAT, [3H]WIN 35,428. To be noted: [3H]WIN 35428, transfected cell lines.

Assay [3] concerns the target T3, DAT (dopamine transporter site) (Homo sapiens, UniProt Q01959).
T3 construct: expressed in transfected cells
In words: Transporter affinity of N-alkyl ZIENT ligands in transfected cell lines, [125I]TRI-55. The class given is binding. The source says:
(§1) In order to determine whether any structural modifications of ZIENT, FEINT, and FEBrNT would still yield high selectivity and specificity for SERT similar to the results seen with ZIENT, FEINT, FEBrNT and FEClNT, various substitutions on the tropane nitrogen and the 2-beta carboxyester position were made and tested in in vitro binding studies.
(§2) These studies provide a variety of new compounds which can be used as imaging agents for visualizing the location and density of serotonin transporter by PET or SPECT imaging.

Assay [4] addresses T4, NET (norepinephrine transporter site) (Homo sapiens, UniProt P23975).
T4 construct: expressed in transfected cells
The assay can be described thus: Transporter affinity of N-alkyl ZIENT ligands in transfected cell lines, [3H]nisoxetine. It is filed as binding.
From the text: as §1, §2

The target of assay [5] is T5, 5-HTT (serotonin transporter site) (Homo sapiens, UniProt P31645).
T5 construct: expressed in transfected cells
T5 sequence (P31645 whole entry): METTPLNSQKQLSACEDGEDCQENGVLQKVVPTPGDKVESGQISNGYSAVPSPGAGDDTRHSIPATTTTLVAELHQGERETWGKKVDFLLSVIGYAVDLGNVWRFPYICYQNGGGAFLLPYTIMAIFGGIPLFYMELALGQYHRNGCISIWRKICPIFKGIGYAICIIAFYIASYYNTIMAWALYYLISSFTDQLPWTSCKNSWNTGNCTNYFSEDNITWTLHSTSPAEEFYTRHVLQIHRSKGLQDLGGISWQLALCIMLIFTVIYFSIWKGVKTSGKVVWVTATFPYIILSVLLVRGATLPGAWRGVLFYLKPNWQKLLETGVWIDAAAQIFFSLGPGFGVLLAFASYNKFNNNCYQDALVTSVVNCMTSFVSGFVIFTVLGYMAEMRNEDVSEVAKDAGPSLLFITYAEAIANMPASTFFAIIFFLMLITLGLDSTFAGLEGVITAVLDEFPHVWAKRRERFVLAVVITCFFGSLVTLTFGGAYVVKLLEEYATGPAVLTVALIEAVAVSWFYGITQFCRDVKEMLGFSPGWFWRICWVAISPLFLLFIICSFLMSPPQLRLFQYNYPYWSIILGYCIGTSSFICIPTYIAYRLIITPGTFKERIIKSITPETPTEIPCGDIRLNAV
The assay can be described thus: Transporter affinity of N-alkyl ZIENT ligands in transfected cell lines, [3H]citalopram. The class given is binding.
From the text: as §1, §2

Assay [6] addresses T6, human NET (Homo sapiens, UniProt P23975).
T6 construct: expressed in transfected cells
In words: Binding site competition, cells stably transfected with human NET, [3H]nisoxetine. To be noted: transfected cell lines.

The subject of assay [7] is SERT. To be noted: cited from earlier work.

Where “and” joins values, the source holds several entries; their conditions need not be identical. Identical values can stand only once. Like-named read-outs stand apart in the source and are kept apart here.

T4 sequence (P23975 whole entry): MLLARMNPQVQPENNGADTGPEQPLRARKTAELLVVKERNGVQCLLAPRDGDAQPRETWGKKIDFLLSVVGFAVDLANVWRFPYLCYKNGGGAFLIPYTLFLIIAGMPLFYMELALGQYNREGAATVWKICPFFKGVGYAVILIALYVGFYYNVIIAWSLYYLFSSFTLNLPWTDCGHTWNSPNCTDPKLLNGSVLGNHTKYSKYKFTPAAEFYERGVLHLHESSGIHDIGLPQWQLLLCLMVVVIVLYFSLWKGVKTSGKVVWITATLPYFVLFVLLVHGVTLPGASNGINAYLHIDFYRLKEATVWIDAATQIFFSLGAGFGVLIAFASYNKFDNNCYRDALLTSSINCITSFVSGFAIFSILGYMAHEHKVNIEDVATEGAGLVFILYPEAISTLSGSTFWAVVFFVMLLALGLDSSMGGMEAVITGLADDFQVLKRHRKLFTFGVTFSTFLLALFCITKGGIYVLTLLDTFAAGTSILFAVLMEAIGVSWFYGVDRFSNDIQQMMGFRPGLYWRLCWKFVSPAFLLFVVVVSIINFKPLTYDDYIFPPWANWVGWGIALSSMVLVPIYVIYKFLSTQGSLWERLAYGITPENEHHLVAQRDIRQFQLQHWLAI
T6 sequence (P23975 whole entry): as above
T3 sequence (Q01959 whole entry): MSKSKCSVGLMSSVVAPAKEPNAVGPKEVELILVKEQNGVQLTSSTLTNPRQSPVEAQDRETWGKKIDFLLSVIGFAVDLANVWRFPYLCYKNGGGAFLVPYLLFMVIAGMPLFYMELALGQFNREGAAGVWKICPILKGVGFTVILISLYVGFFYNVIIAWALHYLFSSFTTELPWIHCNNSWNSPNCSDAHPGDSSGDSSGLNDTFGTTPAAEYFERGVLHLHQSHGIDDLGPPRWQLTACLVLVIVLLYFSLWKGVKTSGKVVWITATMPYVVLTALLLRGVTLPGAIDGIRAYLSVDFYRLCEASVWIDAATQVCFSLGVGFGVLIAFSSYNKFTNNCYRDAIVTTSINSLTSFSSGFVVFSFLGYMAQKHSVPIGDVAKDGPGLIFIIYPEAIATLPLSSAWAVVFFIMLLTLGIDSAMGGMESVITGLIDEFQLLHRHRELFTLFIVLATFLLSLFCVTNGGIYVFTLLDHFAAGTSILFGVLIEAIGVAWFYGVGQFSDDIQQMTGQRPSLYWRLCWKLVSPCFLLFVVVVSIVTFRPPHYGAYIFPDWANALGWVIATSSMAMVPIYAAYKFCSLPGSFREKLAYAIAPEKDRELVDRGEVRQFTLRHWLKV
T2 sequence (Q01959 whole entry): as above
T1 sequence (P31645 whole entry): as the sequence (P31645 whole entry) above

For `COC(=O)C1C2CCC(CC1c1ccc(/C=C\CF)cc1)N2` (stereo not drawn) [Ligand Z-3-FPNT, 2β-carbomethoxy-3β-(4′(Z-3-fluoropropenyl)phenyl)-nortropane], the Ki in assay [1] turned out to be 0.1 nM; in assay [2], 11.6 nM. Further, the DAT/SERT selectivity in assay [1] is 116.
Take `COC(=O)C1C2CCC(CC1c1ccc(I)cc1)N2` (stereo not drawn) [Nor-CIT, 2β-carbomethoxy-3β-(4-iodophenyl)nortropane, reference compound]: in assay [1], the Ki was 0.12 nM.
Regarding `COC(=O)C1C(c2ccc(C=CI)cc2)CC2CCC1N2CCF` (centres unmarked) [N-fluoroethyl ZIENT], the Ki was found to be 27 nM in assay [3], 21 nM in assay [4] and 1.28 nM in assay [5].
For `COC(=O)C1C2CCC(CC1c1ccc(CCF)c(Br)c1)N2` (stereo not drawn) [FEBrNT, 2β-carbomethoxy-3β-(4-(2-fluoroethyl)-3-bromophenyl)nortropane], in assay [6] (NET Ki), the Ki came out at 126 nM. Further, in assay [1], the inhibition constant (Ki) was 0.22 nM and 0.12 to 0.56 nM; the “SERT Ki” value is reported as “subnanomolar”; the DAT/SERT selectivity was determined as 100; the NET/SERT selectivity is recorded as 573. The Ki in assay [2] is 23.2 nM and 23 nM.
Turning to `COC(=O)C1C(c2ccc(C=CI)cc2)CC2CCC1N2C` (centres unmarked) [N-methyl ZIENT], the results for the Ki in assay [3], in assay [4] and in assay [5] were 33 nM, 69 nM and 0.48 nM, respectively.
Take `COC(=O)[C@@H]1C2CCC(C[C@@H]1c1ccc(/C=C/I)cc1)N2` (some centres unmarked) [EINT]: the results for the Ki in assay [6] (read-out: NET Ki), in assay [1] and in assay [2] were 32 nM, 1.15 nM and 1.88 nM, respectively. Besides, in assay [7], the “Selectivity for the SERT over the DAT” value is listed as 500 times. Moreover, the IC50 in assay [7] (vs [3H]WIN 35428 (so in the source)) was 0.69 nM.
With `C=C(C)c1ccc(C2CC3CCC(N3)C2C(=O)OC)cc1` (stereo not drawn) [Nor-β-CIPPT, 2β-carbomethoxy-3β-(4′-isopropenylphenyl)nortropane], in assay [7], the “Selectivity for the SERT over the DAT” value is given as 38 times. Also, the IC50 in assay [7] (vs [3H]paroxetine) was 0.6 nM.
As to `COC(=O)C1C2CCC(CC1c1ccc(CCCF)c(I)c1)N2` (centres unmarked) [FPINT], in assay [1], the “SERT Ki” value is recorded as “subnanomolar”.
For the compound `COC(=O)C1C2CCC(CC1c1ccc(C=CI)cc1)N2` (centres unmarked) [ZIENT], the Ki is 24 nM in assay [6] (NET Ki); 0.031 nM and 0.03 to 0.1 nM and 0.05 nM in assay [1]; 3.47 nM in assay [2]; 16 nM in assay [3]; 64 nM in assay [4]; 0.25 nM in assay [5]. Also, in assay [1], the “SERT Ki” value was “subnanomolar”. In addition, the DAT/SERT selectivity in assay [1] is 100 and 116. Moreover, in assay [1], the NET/SERT selectivity was found to be 484.
With `COC(=O)C1C2CCC(CC1c1ccc(CCF)c(I)c1)N2` (stereo not drawn) [FEINT, 2β-carbomethoxy-3β-(4-(2-fluoroethyl)-3-iodophenyl)nortropane], the Ki in assay [6] (NET Ki) is 64.9 nM and 65 nM. Besides, in assay [1], the Ki is 0.1 nM and 0.12 to 0.56 nM; the “SERT Ki” value was “subnanomolar”; the DAT/SERT selectivity was 424 and 283; the NET/SERT selectivity amounted to 649. The Ki in assay [2] is 42.4 nM and 42 nM.
The compound `COC(=O)C1C2CCC(CC1c1ccc(CCF)c(Cl)c1)N2` (stereo not drawn) [FEClNT, 2β-carbomethoxy-3β-(4-(2-fluoroethyl)-3-chlorophenyl)nortropane] showed a Ki in assay [6] (NET Ki) of 117 nM. Also, in assay [1], the Ki is 0.56 nM and 0.12 to 0.56 nM; the “SERT Ki” value is reported as “subnanomolar”; the DAT/SERT selectivity was found to be 48; the NET/SERT selectivity is listed as 209. The same compound came in with a Ki in assay [2] of 27 nM.
With `COC(=O)[C@H]1[C@@H](c2ccc(C(C)=CF)cc2)C[C@@H]2CC[C@H]1N2` [IPPNT], the Ki came out at 11.8 nM in assay [6] (read-out: NET Ki), 0.08 nM in assay [1] and 2.93 nM in assay [2]. For the same compound, in assay [1], the “SERT Ki” value is reported as “subnanomolar”. Besides, the DAT/SERT selectivity in assay [1] amounted to 37.

The values are drawn from patent publication US6843979B2, “4-haloethenylphenyl tropane:serotonin transporter imaging agents” (Emory University, priority 1999, dated 2005).
